Source: PubChem BioAssay (NCI)
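Exposure lasted 48 hours, with cells grown in 96-well plates and compounds tested at five concentrations. GI50: concentration for 50% inhibition of growth. TGI: total growth inhibition.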

What was measured:
Assay in all cases: NCI-60 cell line screen, 48 h
MALME-3M melanoma = tested on: MALME-3M melanoma
SK-MEL-5 melanoma = tested on: SK-MEL-5 melanoma
SK-OV-3 ovarian = tested on: SK-OV-3 ovarian
UACC-257 melanoma = tested on: UACC-257 melanoma
SK-MEL-2 melanoma = tested on: SK-MEL-2 melanoma
HCT-15 colon = tested on: HCT-15 colon
NCI-H23 lung = tested on: NCI-H23 lung
CCRF-CEM leukemia = tested on: CCRF-CEM leukemia
MDA-MB-435 = tested on: MDA-MB-435
NCI/ADR-RES ovarian = tested on: NCI/ADR-RES ovarian

## CC1CCC2[C@@H](C)COC3O[C@]4(C)CCC1C32OO4 (some centres undefined)
MALME-3M melanoma
  TGI: > 100 µM
SK-MEL-5 melanoma
  TGI: > 100 µM
SK-OV-3 ovarian
  TGI: > 100 µM
UACC-257 melanoma
  TGI: > 100 µM
SK-MEL-2 melanoma
  TGI: > 100 µM
HCT-15 colon
  TGI: > 100 µM
NCI-H23 lung
  TGI: > 100 µM
CCRF-CEM leukemia
  TGI: > 100 µM

## CC1SC(c2cccc(Cl)c2)N(NC(=O)C(O)c2ccccc2)C1=O (centres undefined)
MALME-3M melanoma
  GI50: > 100 µM
  TGI: > 100 µM
SK-MEL-5 melanoma
  GI50: > 100 µM
  TGI: > 100 µM
SK-OV-3 ovarian
  GI50: > 100 µM
  TGI: > 100 µM
UACC-257 melanoma
  GI50: > 100 µM
  TGI: > 100 µM
SK-MEL-2 melanoma
  GI50: > 100 µM
  TGI: > 100 µM
HCT-15 colon
  GI50: > 100 µM
  TGI: > 100 µM
NCI-H23 lung
  GI50: > 100 µM
  TGI: > 100 µM
MDA-MB-435
  GI50: > 100 µM
  TGI: > 100 µM
CCRF-CEM leukemia
  GI50: > 100 µM
  TGI: > 100 µM

## COc1ccc(OC)c(/C=C/C(=O)c2ccc3cc(OC)ccc3c2)c1
SK-MEL-5 melanoma
  GI50: 6.4 µM
  TGI: > 24.3 µM
SK-OV-3 ovarian
  GI50: 1.04 µM
  TGI: 2.37 µM
UACC-257 melanoma
  GI50: 7.05 µM
  TGI: > 27.8 µM
SK-MEL-2 melanoma
  GI50: > 14.9 µM
  TGI: > 50 µM
HCT-15 colon
  TGI: > 50 µM
NCI-H23 lung
  TGI: > 14.3 µM
MDA-MB-435
  GI50: 0.641 µM
  TGI: 1.88 µM
NCI/ADR-RES ovarian
  TGI: > 13.8 µM

## CC1(C)N=C(N)N=C(N)N1c1ccc(CCC(=O)Nc2cccc(S(=O)(=O)F)c2)cc1
MALME-3M melanoma
  GI50: 21.3 µM
  TGI: > 100 µM
SK-MEL-5 melanoma
  GI50: 4.83 µM
  TGI: > 100 µM
SK-OV-3 ovarian
  GI50: > 100 µM
  TGI: > 100 µM
UACC-257 melanoma
  GI50: 4.09 µM
  TGI: > 100 µM
SK-MEL-2 melanoma
  GI50: 10.8 µM
  TGI: > 100 µM
HCT-15 colon
  GI50: 30.7 µM
  TGI: > 100 µM
NCI-H23 lung
  GI50: 7.78 µM
  TGI: > 100 µM
MDA-MB-435
  GI50: 4.9 µM
  TGI: > 100 µM
NCI/ADR-RES ovarian
  GI50: > 100 µM
  TGI: > 100 µM

## O=S1Cc2ccccc2CSS1 (centres undefined)
MALME-3M melanoma
  TGI: 26.2 µM
SK-MEL-5 melanoma
  TGI: 26.3 µM
SK-OV-3 ovarian
  TGI: > 100 µM
UACC-257 melanoma
  TGI: 29.1 µM
HCT-15 colon
  TGI: 28.1 µM
NCI-H23 lung
  TGI: 28.1 µM

## CC(=O)Nc1ccc(OCC(O)CO)cc1 (centres undefined)
MALME-3M melanoma
  TGI: > 100 µM
SK-MEL-5 melanoma
  TGI: > 100 µM
SK-OV-3 ovarian
  TGI: > 100 µM
UACC-257 melanoma
  TGI: > 100 µM
SK-MEL-2 melanoma
  TGI: > 100 µM
HCT-15 colon
  TGI: > 100 µM
NCI-H23 lung
  TGI: > 100 µM
CCRF-CEM leukemia
  TGI: > 100 µM

## Cc1ccc(SSCCCCS(=O)O)cc1
MALME-3M melanoma
  TGI: 69.7 µM
SK-MEL-5 melanoma
  TGI: 25.6 µM
SK-OV-3 ovarian
  TGI: 71 µM
UACC-257 melanoma
  TGI: 53.3 µM
SK-MEL-2 melanoma
  TGI: 68.5 µM
HCT-15 colon
  TGI: 89.2 µM
NCI-H23 lung
  TGI: 55.4 µM
CCRF-CEM leukemia
  TGI: 62.5 µM

## Cc1ccccc1NC(=O)CC(=O)n1nc(-c2ccccc2)c(N=Nc2ccc([N+](=O)[O-])cc2)c1-c1ccccc1
MALME-3M melanoma
  TGI: 75.9 µM
SK-MEL-5 melanoma
  TGI: 25.9 µM
SK-OV-3 ovarian
  TGI: 57.7 µM
UACC-257 melanoma
  TGI: 56.4 µM
SK-MEL-2 melanoma
  TGI: > 100 µM
NCI-H23 lung
  TGI: > 100 µM
CCRF-CEM leukemia
  TGI: > 100 µM

## C(=NCCN=Cc1cccc2ccccc12)c1cccc2ccccc12
MALME-3M melanoma
  TGI: > 100 µM
SK-MEL-5 melanoma
  TGI: > 100 µM
SK-OV-3 ovarian
  TGI: > 100 µM
UACC-257 melanoma
  TGI: > 100 µM
SK-MEL-2 melanoma
  TGI: > 100 µM
HCT-15 colon
  TGI: > 100 µM
NCI-H23 lung
  TGI: > 100 µM

## C#Cc1ccccc1N1C(=O)C=CC1=O
MALME-3M melanoma
  TGI: > 100 µM
SK-MEL-5 melanoma
  TGI: > 100 µM
SK-OV-3 ovarian
  TGI: > 100 µM
UACC-257 melanoma
  TGI: > 100 µM
SK-MEL-2 melanoma
  TGI: > 100 µM
NCI-H23 lung
  TGI: > 100 µM
CCRF-CEM leukemia
  TGI: > 100 µM

## ClCCCN1CCCCC1CCl (centres undefined)
MALME-3M melanoma
  TGI: > 100 µM
SK-MEL-5 melanoma
  TGI: > 100 µM
SK-OV-3 ovarian
  TGI: > 100 µM
SK-MEL-2 melanoma
  TGI: > 100 µM
HCT-15 colon
  TGI: > 100 µM
NCI-H23 lung
  TGI: > 100 µM
CCRF-CEM leukemia
  TGI: > 100 µM

## CCOc1ccccc1NC(=O)C(=O)c1c(O)c2ccc(O)cc2oc1=O
MALME-3M melanoma
  TGI: > 100 µM
SK-MEL-5 melanoma
  TGI: > 100 µM
SK-OV-3 ovarian
  TGI: > 100 µM
UACC-257 melanoma
  TGI: > 100 µM
SK-MEL-2 melanoma
  TGI: > 100 µM
HCT-15 colon
  TGI: > 100 µM
NCI-H23 lung
  TGI: > 100 µM
CCRF-CEM leukemia
  TGI: > 100 µM

## CC(=O)OC1(C#N)CC2OC1C1NC21 (centres undefined)
MALME-3M melanoma
  TGI: > 100 µM
SK-MEL-5 melanoma
  TGI: > 100 µM
SK-OV-3 ovarian
  TGI: > 100 µM
SK-MEL-2 melanoma
  TGI: > 100 µM
HCT-15 colon
  TGI: > 100 µM
NCI-H23 lung
  TGI: > 100 µM
CCRF-CEM leukemia
  TGI: > 100 µM

## CN/N=C(/CC(=O)c1sc(NNC(C)=O)nc1C)C(=O)Nc1ccc(OC)cc1OC
MALME-3M melanoma
  TGI: > 100 µM
SK-MEL-5 melanoma
  TGI: > 100 µM
UACC-257 melanoma
  TGI: > 100 µM
SK-MEL-2 melanoma
  TGI: > 100 µM
HCT-15 colon
  TGI: > 100 µM
NCI-H23 lung
  TGI: > 100 µM
CCRF-CEM leukemia
  TGI: > 100 µM

## COc1c(OC2OC(CO)C(O)C(O)C2O)cc2c(c1OC)-c1ccc(OC)c(=O)cc1[C@@H](NC(C)=O)CC2 (some centres undefined)
MALME-3M melanoma
  TGI: > 100 µM
SK-MEL-5 melanoma
  TGI: > 94.5 µM
SK-OV-3 ovarian
  TGI: > 100 µM
UACC-257 melanoma
  TGI: > 100 µM
SK-MEL-2 melanoma
  TGI: > 100 µM
HCT-15 colon
  TGI: > 100 µM
NCI-H23 lung
  TGI: > 100 µM
CCRF-CEM leukemia
  TGI: > 100 µM

## NNC(=O)N/N=C1/C(=O)N(c2ccc(Cl)c(Cl)c2)C(=O)C(=O)C1c1nc2ccccc2o1 (centres undefined)
MALME-3M melanoma
  TGI: > 100 µM
SK-MEL-5 melanoma
  TGI: > 100 µM
SK-OV-3 ovarian
  TGI: > 100 µM
UACC-257 melanoma
  TGI: > 100 µM
SK-MEL-2 melanoma
  TGI: > 100 µM
HCT-15 colon
  TGI: > 100 µM
NCI-H23 lung
  TGI: > 100 µM
CCRF-CEM leukemia
  TGI: > 100 µM

## O=C(Nc1ccc(N2CCNCC2)cn1)c1[nH]ncc1Nc1ncnc2sc3c(c12)CCC3
SK-OV-3 ovarian
  GI50: 16.3 µM
  TGI: 34.8 µM
UACC-257 melanoma
  GI50: 16.6 µM
  TGI: 41.2 µM
SK-MEL-2 melanoma
  GI50: 13.6 µM
  TGI: 35.1 µM
NCI-H23 lung
  GI50: 2.21 µM
  TGI: 6.32 µM
MDA-MB-435
  GI50: 1.13 µM
  TGI: 2.67 µM
NCI/ADR-RES ovarian
  GI50: 4.75 µM
  TGI: > 100 µM

## COc1ccc2c(c1)C(=O)c1c-2n(CCCNCCO)c(=O)c2cc([N+](=O)[O-])ccc12
SK-MEL-5 melanoma
  GI50: < 0.01 µM
  TGI: < 0.0251 µM
SK-OV-3 ovarian
  GI50: < 0.01 µM
  TGI: 1.69 µM
UACC-257 melanoma
  GI50: 0.0691 µM
  TGI: 1.96 µM
SK-MEL-2 melanoma
  GI50: 0.427 µM
  TGI: 2.3 µM
HCT-15 colon
  GI50: < 0.0211 µM
  TGI: 1.19 µM
NCI-H23 lung
  GI50: < 0.01 µM
  TGI: 0.0341 µM
MDA-MB-435
  GI50: < 0.01 µM
  TGI: 1.06 µM
CCRF-CEM leukemia
  GI50: < 0.01 µM
  TGI: < 0.01 µM
NCI/ADR-RES ovarian
  GI50: < 0.01 µM
  TGI: 1.68 µM

## CC1=C(C(=O)NCc2ccccc2)C(c2ccccc2O)C(C(=O)NCc2ccccc2)=C(C)N1
MALME-3M melanoma
  TGI: 30.1 µM
SK-MEL-5 melanoma
  TGI: 28.6 µM
SK-OV-3 ovarian
  TGI: 64.9 µM
UACC-257 melanoma
  TGI: > 31.6 µM
SK-MEL-2 melanoma
  TGI: 32.6 µM
HCT-15 colon
  TGI: 30.2 µM
NCI-H23 lung
  TGI: 34.1 µM
CCRF-CEM leukemia
  TGI: 82.9 µM

## COc1ccc(S(=O)(=O)N/N=C/CN2C(=O)c3ccccc3C2=O)cc1
MALME-3M melanoma
  TGI: > 100 µM
SK-MEL-5 melanoma
  TGI: > 100 µM
UACC-257 melanoma
  TGI: > 100 µM
SK-MEL-2 melanoma
  TGI: > 100 µM
HCT-15 colon
  TGI: > 100 µM
NCI-H23 lung
  TGI: > 100 µM
CCRF-CEM leukemia
  TGI: > 100 µM

## Cc1ccc(NC(=O)CC2C(=O)Nc3ccccc3S2(=O)=O)cc1C (centres undefined)
MALME-3M melanoma
  TGI: > 100 µM
SK-MEL-5 melanoma
  TGI: > 100 µM
UACC-257 melanoma
  TGI: > 100 µM
SK-MEL-2 melanoma
  TGI: > 100 µM
HCT-15 colon
  TGI: > 100 µM
NCI-H23 lung
  TGI: > 100 µM
CCRF-CEM leukemia
  TGI: > 100 µM

## CCOc1cc[n+](C(=C=[N-])C#N)cc1
MALME-3M melanoma
  TGI: > 100 µM
SK-MEL-5 melanoma
  TGI: > 100 µM
SK-OV-3 ovarian
  TGI: > 100 µM
UACC-257 melanoma
  TGI: > 100 µM
HCT-15 colon
  TGI: > 100 µM
NCI-H23 lung
  TGI: > 100 µM
CCRF-CEM leukemia
  TGI: > 100 µM
